US20240335427A1, “SMALL MOLECULE INHIBITION OF DEUBIQUITINATING ENZYME JOSEPHIN DOMAIN CONTAINING 1 (JOSD1) AS A TARGETED THERAPY FOR LEUKEMIAS WITH MUTANT JANUS KINASE 2 (JAK2)” (DANA-FARBER CANCER INSTITUTE, INC., priority 2021, published 2024)

Assays:
[1] = molecular target: JOSD1 (Homo sapiens (Human), UniProt Q15040); test: In vitro JOSD1 activity assay (biochemical IC50, purified enzyme); settings: read-out: JOSD1 IC50
Protocol: In vitro JOSD1 activity assay & Ubiquitin-7-amido-4-methylcoumarin (AMC) assay. In vitro JOSD1 activity assay was carried out with Ubiquitin-AMC assay. […] Recombinant JOSD1 was tested for activity in a Ubiquitin-AMC assay in the presence or absence of inhibitors. […] The reaction was incubated for 6 hours at room temperature prior to the addition of 2 μM Ubiquitin-AMC (Boston Biochem) substrate. The initial rate of the reaction was measured by collecting fluorescence data at one-minute intervals over a 30-minute period using a Clariostar® fluorescence plate reader at excitation and emission wavelengths of 345 and 445 nm, respectively. The calculated initial rate values were plotted against inhibitor concentrations to determine IC50 values.
In vitro JOSD1 activity assay. Recombinant full-length JOSD1 was tested for activity in a Ubiquitin-AMC assay in the presence or absence or inhibitors. For this assay, 10 nM JOSD1 was pre-incubated with different concentrations of inhibitors or DMSO as a control in 50 mM Tris 8.0, 0.5 mM EDTA, 10 mM ovalbumin, 5 mM DTT. The reaction was incubated for 6 h at room temperature prior to the addition of 2 mM Ubiquitin-AMC (Boston Biochem) substrate. The initial rate of the reaction was measured by collecting fluorescence data at one-minute intervals over a 30-minute period using a CLARIOstar® fluorescence plate reader at excitation and emission wavelengths of 345 and 445 nm, respectively. The calculated initial rate values were plotted against inhibitor concentrations to determine IC50 values.
JOSD1 biochemical inhibition was investigated for the analogs shown using the fluorescent substrate ubiquitin-rhodamine against purified enzyme in a continuous kinetic assay.

[2] = molecular target: UCHL1 (Homo sapiens (Human), UniProt P09936); test: UCHL1 biochemical inhibition (ubiquitin hydrolase activity, purified enzyme)
[3] = system: JAK2-V617F-positive primary AML patient samples; test: AML liquid culture proliferation, primary patient samples; assay type: cell-based, human; settings: 1 μM
Text: AML liquid culture proliferation and colony assay studies. Frozen vials of bone marrow from AML patients identified as harboring JAK2-V617F were previously Ficoll®-purified to obtain mononuclear cells and thawed prior to use in studies.

Sequence of UCHL1 (P09936 whole entry, species assumed): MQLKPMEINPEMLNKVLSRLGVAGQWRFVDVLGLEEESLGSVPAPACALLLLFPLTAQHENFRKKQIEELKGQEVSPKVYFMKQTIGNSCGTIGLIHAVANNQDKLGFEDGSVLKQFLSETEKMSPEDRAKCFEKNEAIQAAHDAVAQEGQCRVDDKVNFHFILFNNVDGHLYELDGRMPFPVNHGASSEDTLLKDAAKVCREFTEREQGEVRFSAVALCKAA

IC50 [1] [nM] | IC50 [2] [nM] | SMILES | efficacy against primary AML cells [3]
– | 104 | N#CN1CC[C@H](C(=O)Nc2cn(Cc3ccccc3)cn2)C1 [Compound 32] | –
1950 | 1830 | N#CN1CC(C(=O)Nc2nc3ccc(Br)cc3s2)C1 [Compound 33, N-(6-bromobenzo[d]thiazol-2-yl)-1-cyanoazetidine-3-carboxamide] | –
2130 | – | Cc1sc(N(C)C(=O)[C@@H]2CCCN2C#N)nc1-c1cccc(C#N)n1 [Compound 34] | –
2770 | 420 | Cc1noc(C)c1-c1ccc2nc(NC(=O)C3CCN(C#N)CC3)sc2c1 [Compound 35, 1-Cyano-N-(6-(3,5-dimethylisoxazol-4-yl)benzo[d]thiazol-2-yl)piperidine-4-carboxamide] | –
3370 | 1340 | N#CN1CC[C@H](C(=O)Nc2nc3n(n2)CCN(C(=O)c2ccccc2)C3)C1 [Compound 36] | –
4150 | 89 | N#CN1CC[C@H](C(=O)Nc2cn(C3CCCN(C(=O)c4ccccc4)C3)cn2)C1 (some centres unmarked) [Compound 38] | –
4850 | – | N#CN1CC[C@H](C(=O)Nc2nc3ccccc3o2)C1 [Compound 39, (S)—N-(benzo[d]oxazol-2-yl)-1-cyanopyrrolidine-3-carboxamide] | –
5680 | 100000 | Cc1noc(C)c1-c1ccc2nc(NC(=O)[C@H]3CCN(CC#N)C3)sc2c1 [Compound 40, (S)-1-(cyanomethyl)-N-(6-(3,5-dimethylisoxazol-4-yl)benzo[d]thiazol-2-yl)pyrrolidine-3-carboxamide] | –
6070 | 100000 | N#CN1CCc2cc(NC(=O)c3nc4ccccc4s3)ccc21 [Compound 41] | –
6230 | 1080 | N#CN1CCC[C@H](C(=O)Nc2cn(Cc3ccccc3)cn2)C1 [Compound 42] | –
6420 | – | Cc1noc(C)c1-c1ccc2nc(NC(=O)c3ccnc(C#N)n3)sc2c1 [Compound 43, 2-Cyano-N-(6-(3,5-dimethyl-1λ^3,2λ^2-isoxazol-4-yl)benzo[d]thiazol-2-yl)pyrimidine-4-carboxamide] | –
8250 | – | C#CCNC(=O)c1ccc(-c2cnc(NC(=O)[C@H]3CCN(C#N)C3)s2)cc1 [Compound 44, (S)-1-cyano-N-(5-(4-(prop-2-yn-1-ylcarbamoyl)phenyl)thiazol-2-yl)pyrrolidine-3-carboxamide] | –
11300 | 100000 | N#CN1CC(CNC(=O)c2nc3ccccc3s2)C1 [Compound 46, N-((1-cyanoazetidin-3-yl)methyl)benzo[d]thiazole-2-carboxamide] | –
– | 1290 | Cc1noc(C)c1-c1ccc2nc(NC(=O)C3CN(C#N)C3)sc2c1 [Compound 47, 1-Cyano-N-(6-(3,5-dimethylisoxazol-4-yl)benzo[d]thiazol-2-yl)azetidine-3-carboxamide] | –

The remaining lines, values behind:

SMILES | IC50 [1] [nM] | IC50 [2] [nM] | efficacy against primary AML cells [3]
N#CN1CCC(C(=O)Nc2nc3ccc(C4CC4)cc3s2)C1 (stereo in doubt) [Compound 8, (R)-1-cyano-N-(6-cyclopropylbenzo[d]thiazol-2-yl)pyrrolidine-3-carboxamide] | 99 | 12 | –
Cc1noc(C)c1-c1ccc2sc(NC(=O)[C@H]3CCN(C#N)C3)nc2c1 [Compound 4, (S)-1-cyano-N-(5-(3,5-dimethylisoxazol-4-yl)benzo[d]thiazol-2-yl)pyrrolidine-3-carboxamide] | 45 | – | –
Cc1noc(C)c1-c1cccc2sc(NC(=O)[C@H]3CCN(C#N)C3)nc12 [Compound 5, (S)-1-cyano-N-(4-(3,5-dimethylisoxazol-4-yl)benzo[d]thiazol-2-yl)pyrrolidine-3-carboxamide] | 74 | – | –
CCn1cc(-c2ccc3nc(NC(=O)[C@@H]4CCN(C#N)C4)sc3c2)cn1 [Compound 6, (R)-1-cyano-N-(6-(1-ethyl-1H-pyrazol-4-yl)benzo[d]thiazol-2-yl)pyrrolidine-3-carboxamide] | 82 | – | –
N#CN1CC[C@H](C(=O)Nc2ccc3c(cnn3Cc3ccccc3)c2)C1 [Compound 10, (S)—N-(1-benzyl-1H-indazol-5-yl)-1-cyanopyrrolidine-3-carboxamide] | 160 | – | –
N#CN1CC[C@H](C(=O)Nc2nc(-c3ccccc3)cs2)C1 [Compound 11, (S)-1-cyano-N-(4-phenylthiazol-2-yl)pyrrolidine-3-carboxamide] | 160 | – | –
Cc1noc(C)c1-c1ccc2nc(NC(=O)[C@H]3CCN(C#N)C3)sc2c1 [Compound 12] | 244 | 100 | –
N#CN1CC[C@@H](C(=O)Nc2nc3ccc(-c4ccc(-c5ccccc5)cc4)cc3s2)C1 [Compound 14, (R)—N-(6-([1,1′-biphenyl]-4-yl)benzo[d]thiazol-2-yl)-1-cyanopyrrolidine-3-carboxamide] | 270 | – | –
N#CN1CC[C@H](C(=O)Nc2nc3ccc(Br)nc3s2)C1 [Compound 15, (S)—N-(5-bromothiazolo[5,4-b]pyridin-2-yl)-1-cyanopyrrolidine-3-carboxamide] | 288 | 2000 | –
Cc1cccc2sc(NC(=O)[C@H]3CCN(C#N)C3)nc12 [Compound 18, (S)-1-cyano-N-(4-methylbenzo[d]thiazol-2-yl)pyrrolidine-3-carboxamide] | 380 | – | –
Cc1noc(C)c1-c1ccc2nc(NC(=O)[C@H]3CCN(C#N)C3)sc2n1 [Compound 19] | 420 | 90 | –
N#CN1CC[C@H](NC(=O)c2nc3ccccc3s2)C1 [Compound 20] | 430 | 2060 | –
Cc1noc(C)c1-c1ccc2cnc(NC(=O)[C@H]3CCN(C#N)C3)cc2c1 [Compound 21] | 460 | – | –
N#CN1CC[C@H](C(=O)Nc2nc3ccc(-c4c[nH]nc4C(F)(F)F)cc3s2)C1 [Compound 22, (S)-1-cyano-N-(6-(3-(trifluoromethyl)-1H-pyrazol-4-yl)benzo[d]thiazol-2-yl)pyrrolidine-3-carboxamide] | 520 | – | –
Cc1noc(C)c1-c1ccc2nc(NC(=O)[C@@H]3CCN(C#N)C3)sc2c1 [Compound 24] | 690 | 1850 | –
N#CN1CC[C@H](C(=O)Nc2ccn(Cc3ccccc3)c2)C1 [Compound 25] | 931 | 8900 | –
N#CN1CCC(C(=O)Nc2nc3c(s2)CN(C(=O)c2ccccc2)CC3)C1 (centres unmarked) [Compound 26] | 1100 | 100 | –
N#CN1CC[C@H](C(=O)Nc2cnn(Cc3ccccc3)c2)C1 [Compound 27, (S)—N-(1-benzyl-1H-pyrazol-4-yl)-1-cyanopyrrolidine-3-carboxamide] | 1100 | – | –
N#CN1CC[C@H](C(=O)Nc2cn(-c3ccccc3)cn2)C1 [Compound 28] | 1220 | 155 | –
N#CN1CC[C@@H](C(=O)Nc2cn(Cc3ccccc3)cn2)C1 [Compound 29] | – | 2000 | –
N#CN1CC[C@H](C(=O)Nc2nc3ccccc3[nH]2)C1 [Compound 30, (S)—N-(1H-benzo[d]imidazol-2-yl)-1-cyanopyrrolidine-3-carboxamide] | 1370 | 3670 | –
N#CN1CC[C@H](C(=O)Nc2nc3n(n2)CCN(Cc2ccccc2)C3)C1 [Compound 31] | 1400 | 2690 | –
N#CC[C@H](C1CCCC1)n1cc(-c2ncnc3[nH]ccc23)cn1 [ruxolitinib, reference compound] | – | – | at best modest efficacy
